Measured values from patent US20080020947A1, “Novel microorganisms having oil biodegradability and method for bioremediation of oil-contaminated soil” (priority 2006, published 2008).

Tests used:
[1] = test system: mixed cultured strain of Examples 2, 6 and 7; test: Microbial growth promotion of biosurfactant 2-hexyl-3-hydroxy-decanoic acid (cfu per ml after culture); format: cell-based; settings: 0.1 in composition of Examples 16 and 17
Protocol: These examples relate to an experiment of confirming whether the growth of microorganisms having oil biodegradability is promoted due to the addition of biosurfactant 2-hexyl-3-hydroxy-decanoic acid.
In this experiment, the mixed cultured strain of Examples 2, 6 and 7 was added to tryptic soy broth (TSB) and then cultured for 13 hours. In the culture process, the microbial strain was added into a 100-ml flask at an initial concentration of 4.9×10^6 cfu/ml to a work volume of 10 ml, and the inoculation level of the strain was 1% (w/v), i.e., 0.1 ml.
In Comparative Examples 7-10 and Examples 16 and 17, the microbial strain was cultured in media (10 g/L) at 30° C. for 24 hours, and then measured for colony-forming units (cfu) per ml to determine the degree of proliferation of microorganisms.
Specifically, a composition used in Comparative Examples 7-10 consisted of glucose, yeast extract, malt extract, Na2HPO4, KH2PO4, K2HPO4, MgSO4, CaCl2, FeSO4, CoCl2, ZnSO4, CuSO4 and MnSO4, and a composition used in Examples 16 and 17 consisted of glucose, yeast extract, malt extract, Na2HPO4, KH2PO4, K2HPO4, MgSO4, CaCl2, FeSO4, CoCl2, ZnSO4, CuSO4 and MnSO4, to which the biosurfactant 2-hexyl-3-hydroxy-decanoic acid was added.

Gordonia nitida NP1 = test: Biosurfactant's ability to increase diesel oil degradation by Gordonia nitida NP1; format: cell-based; settings: acid 9 ppm
Protocol: (§1) For this reason, 2-hexyl-3-hydroxy-decanoic acid having 16 carbon atoms according to the present invention was added liquid media each containing 10,000 ppm or 20,000 ppm of diesel oil and mineral medium (NH4NO3, 1 g/L; MgSO4, 0.2 g/L; CaCl2, 0.02 g/L; FeCl2, 0.05 g/L; KH2PO4, 1 g/L; K2HPO4, 1 g/L; pH 7.0). Then, the media were inoculated with each of Rodococcus baikoneurensis EN3 of Example 2 and Gordonia nitida NP1 of Example 6 and cultured at 30° C. for 7 days. Then, an increase in the oil biodegradability of each of the microbial strains was measured using gas chromatography.
FIG. 10 is a graphic diagram showing an increase in the diesel oil degradability of Gordonia nitida NP1, caused by the synthetic biosurfactant 2-hexyl-3-hydroxy-decanoic acid, at an initial diesel concentration of 15,000 ppm. In FIG. 10, the initial inoculation level of […] is 6×10^4 cfu/ml, and the initial concentration of diesel oil is 15,000 ppm. Also, the initial concentrations of 2-hexyl-3-hydroxy-decanoic acid were 9 ppm (▾), 90 ppm (∇) and 900 ppm (▪), the symbol “[…]” indicates a microorganism-uninoculated group (control group 1), and the symbol “∘” indicates a group (control group 2), which was inoculated with microorganisms, but not injected with 2-hexyl-3-hydroxy-decanoic acid. […]

[2] = Critical micelle concentration; format: physicochemical
[3] = test system: Rodococcus baikoneurensis EN3; test: Biosurfactant's ability to increase diesel oil degradation by Rodococcus baikoneurensis EN3; format: cell-based; settings: initial diesel 20,000 ppm; acid 10 ppm, 50 ppm and 100 ppm; about 30% without acid
Protocol: as §1
FIG. 9 is a graphic diagram showing an increase in the diesel oil degradability of Rodococcus baikoneurensis EN3, caused by the synthetic biosurfactant 2-hexyl-3-hydroxy-decanoic acid, at an initial diesel concentration of 20,000 ppm. In FIG. 9, the initial inoculation level of Rodococcus baikoneurensis EN3 is 6×10^4 cfu/ml, and the initial concentration of diesel oil is 20,000 ppm. Also, the initial concentrations of 2-hexyl-3-hydroxy-decanoic acid are 10 ppm (∘), 50 ppm (□) and 100 ppm (Δ), the symbol “•” indicates a microorganism-uninoculated group (control group 1), and the symbol “▪” indicates a group (control group 2), which was inoculated with microorganisms, but not injected with 2-hexyl-3-hydroxy-decanoic acid.

## CCCCCCCC(O)C(CCCCCC)C(=O)O (centres unmarked) [2-hexyl-3-hydroxy-decanoic acid]
[1]
  effect of addition on growth of the microorganisms: promotion of growth
Gordonia nitida NP1; 90 ppm and 900 ppm, initial diesel 15,000 ppm and 20,000 ppm (FIGS. 10, 11)
  change in diesel oil degradation rate of the microbial strain with acid added: great increase
Gordonia nitida NP1; initial diesel 20,000 ppm
  change in oil degradation rate of the microbial strain with acid added: did not show an increase
[2]
  critical micelle concentration (cmc): 37.1 ppm
[3]
  oil biodegradation rate of the microbial strain with acid added: about 70%
